In EP3290412A1, “HIV-1 NUCLEOCAPSID INHIBITORS” (Università degli Studi di Siena, priority 2016, dated 2018):
Marks after values point to notes of the source that are not given here.

Tests used:
[1] = test system: ARP clone 12229 (NNRTI); assay: BiCycle assay, resistant viral strain; assay type: cell-based, HIV-1; conditions: IC50 resistant strain / IC50 wild type NL4-3, BiCycle Assay
Procedure: (§1) BiCycle Assay is cell based assay allowing the evaluation of the antiviral activity of HIV-1 inhibitors on the whole replication cycle of HIV-1. The assay consists in a first round of infection of the T-cell line MT-2 followed by infection of TZM-bl cells. MT-2 cells were seeded at a concentration of 50,000 cells/well in a 96-well plate and infected with the HIV-1 reference strain NL4-3 in presence of five-fold dilutions of the investigational compounds. After 72 hours, 50 µl of supernatant from each well, containing the virus produced in the first round of infection, were used to infect TZM-bl cells seeded in a 96-plate well at a concentration of 30,000 cells/well. Two days later, cells were lysed adding 40 µl of Glo Lysis Buffer (Promega) to each well for 5 minutes, then 40 µl of Brighy-Glo Luciferase Reagent (Promega) were added to each well for relative luminescence units (RLU) counting using Glo-Max Multi Detection System (Promega). RLU values from each well were elaborated using the GraphPad v5.0 software to calculate the IC50 of each compound.
(§2) The antiviral activity of some of the compounds listed in Table 3 was further evaluated determining the IC50 with viruses carrying resistant mutations that reduce the susceptibility to drugs currently employed in clinical practice to treat HIV infection. The resistant viruses were obtained through the NIH AIDS Reagent Program (www.aidsreagent.org) and have been already characterized by the Phenosense Assay (Monogram Biosciences), considered as the reference assay for phenotypic investigation of HIV drug resistance due to its large application in clinical trials.
(§3) IC50 values of resistant viral strains were determined by using the BiCycle Assay as previously described. The results of the analysis are summarized in Table 6, where fold change values are calculated as the ratio between the IC50 values of resistant HIV-1 strains and the IC50 value of the wild type reference HIV-1 strain NL4-3. Table 6. Fold change values of resistant viral strains

[2] = test system: ARP clone 12231 (NNRTI); assay: BiCycle assay, resistant viral strain; assay type: cell-based, HIV-1; conditions: IC50 resistant strain / IC50 wild type NL4-3, BiCycle Assay
Procedure: as §1, §2, §3

[3] = test system: ARP clone 11808 (PI); assay: BiCycle assay, resistant viral strain; assay type: cell-based, HIV-1; conditions: IC50 resistant strain / IC50 wild type NL4-3, BiCycle Assay
Procedure: as §1, §2, §3

[4] = test system: HIV-DNA 2-LTR circles; assay: Quantification of 2-LTR products in infected MT-2 cells (real time PCR); assay type: cell-based, HIV-1; conditions: for 2-LTR/HIV-DNA ratio drug vs no-drug: NL4-3 M.O.I. 0.05, 24 hours, drug 28 1000 nM, 31 3000 nM, 23 5000 nM, Raltegravir 1000 nM
Description: During the replication cycle of HIV, several forms of episomic HIV-DNA can be found in the nucleous as a result of abortive integration events in the genome of the cells. Unintegrated HIV-DNA forms such 2-LTR circles are considered as a marker of ongoing replication and can be easily detected and quantified through real time PCR systems. […] Therefore, the quantification of 2-LTR circles can be used as an indirect method to test the blockade of the integration step by a candidate or licensed integrase inhibitors (Reigadas S. et al, J. Antimicrob. Chemother. 2010; 65: 434-437).
Since NCp7 partecipates to several steps of HIV replication including integration, it was developed a cell based assay aimed at the quantification of 2-LTR circles in infected cells cultured in presence of inhibitory concentrations of candidate NCp7 inhibitors. In each culture 3x10^6 MT-2 cells were infected with HIV-1 reference strain NL4-3 at M.O.I. 0.05 in presence of investigational NCp7 inhibitors 23, 31, 28. A culture with the HIV-1 Integrase inhibitor Raltegravir™ was prepared as a reference for the inhibition of integration, while an infected culture without drugs (named "no-drug") was used to compare the amount of 2-LTR in the different cultures. Table 7 indicates the concentration of drugs used in each culture in comparison to the values of EC50 (calculated through the BiCycle Assay) and the values of TD50. Table 7. Concentration of drugs used [c] in comparison to the values of EC50 (calculated through the BiCycle Assay) and the values of TD50.
Cultures were incubated at 37°C and 5% CO2 for 24 hours, then cells were harvested and total DNA was extracted using the "MagCore® Genomic DNA Whole Blood Kit" automated system (Diatech).
Around 500 ng of extracted DNA were used in separated real time PCR reactions specific for the quantification of the total genomic and HIV-1 DNA, and the HIV-DNA 2-LTR circles, respectively. Both values were normalized as copies/10^6 cells according to β-globin gene quantification included in the first method. For each culture a ratio between 2-LTR/ total HIV-DNA circles was calculated and compared to the ratio obtained with the "no-drug" culture. Table 8. 2-LTR assay results

[5] = target: T1, HIV-1 integrase (Human immunodeficiency virus type 1 group M subtype B, UniProt P04585); assay: HIV-integrase assay (strand transfer kit); assay type: biochemical
T1 construct: Full-length recombinant HIV-1 integrase protein was loaded onto the DS DNA substrate; purchased Xpress Bio Co EZ-1700
Procedure: The integrase assay was performed using the HIV-1 integrase assay kit (Xpress Bio Co, catalog number EZ-1700, Thurmont, MD) according to the manufacturer's instructions. In this assay the streptavidin-coated 96-well plates were used and coated with a double stranded HIV-1 LTR U5 donor substrate (DS) DNA containing an end-labeled biotin. Full-length recombinant HIV-1 integrase protein was loaded onto the DS DNA substrate. After, the compounds were added in the concentration 5 - 1500 µM, and then a different double-stranded target substrate (TS) DNA containing a 3'-end modification was added to the reaction mixture. The HIV-1 integrase cleaved the terminal two bases from the exposed 3'-end of the HIV-1 LTR DS DNA and then catalyzed a strand-transfer recombination reaction to integrate the DS DNA into the TS DNA. The products of the reaction were detected colorimetrically using an HRP-labeled antibody directed against TS 3'-end modification. […] The percentage of DMSO was fixed at 2.5% v/v in all samples. The absorbance at 450 nm was recorded with an iMark™ Microplate Absorbance Reader (Bio-Rad Laboratories). The absorbance values were corrected from the mean blank absorbance (reaction buffer negative control). To calculate the IC50 values, the experimental data were fitted in a logarithm scale using Origin software (Dose response fitting).

[6] = test system: NIH Catalogue Number: 11842; conditions: cited from earlier work
[7] = test system: NIH Catalogue Number: 11845; conditions: cited from earlier work

SMILES	Fold change 12229 (NNRTI) [1]	Fold change 12231 (NNRTI) [2]	Fold change 11808 (PI) [3]	2-LTR/HIV-DNA ratio drug vs no-drug [4]	IC50 [5] [µM]	fold increase in IN IC50 values in comparison to NC Inhibition IC50 values [5] [fold]	inhibition at 0.175 µM ([5]; read-out: % of inhibition (positive control)) [%]	titer / amounts of 2-LTR circles compared with "no-drug" culture ([4]; NL4-3, 24 hours)	Level of resistance ([6]; INI resistant strain 11842)	Fold change ([6]; strain 11842, resistant virus IC50 to wild-type reference virus IC50 ratio, cut-off in brackets)	Level of resistance ([7]; INI resistant strain 11845)	Fold change ([7]; strain 11845, resistant virus IC50 to wild-type reference virus IC50 ratio, cut-off in brackets)
O=C(NCC1CCCCC1)c1nc(-c2ccccn2)nc(O)c1O [Compound 1, N-(cyclohexylmethyl)-5,6-dihydroxy-2-(pyridin-2-yl)pyrimidine-4-carboxamide]	0.6	1.5	0.8									
Cc1cccnc1-c1nc(O)c(O)c(C(=O)N[C@H](C)C2CCCCC2)n1 [Compound 23, (R)-N-(1-cyclohexylethyl)-5,6-dihydroxy-2-(3-methylpyridin-2-yl)pyrimidine-4-carboxamide]	1.0	2.8	5.1	0.5								
C[C@@H](NC(=O)c1nc(-c2cc(Cl)ccn2)nc(O)c1O)C1CCCCC1 [Compound 26, (R)-2-(4-chloropyridin-2-yl)-N-(1-cyclohexylethyl)-5,6-dihydroxypyrimidine-4-carboxamide]		0.8	0.2		150	100						
COc1ccnc(-c2nc(O)c(O)c(C(=O)N[C@H](C)C3CCCCC3)n2)c1 [Compound 28, (R)-N-(1-cyclohexylethyl)-5,6-dihydroxy-2-(4-methoxypyridin-2-yl)pyrimidine-4-carboxamide]	0.1	2.8	1.4	1.3	84	3.8						
C[C@@H](NC(=O)c1nc(-c2nccc3ccccc23)nc(O)c1O)C1CCCCC1 [Compound 31, (R)-N-(1-cyclohexylethyl)-5,6-dihydroxy-2-(isoquinolin-1-yl)pyrimidine-4-carboxamide]	1.3	2.0	1.6	1.1								
CCNCc1ccc(-c2nc(O)c(O)c(C(=O)N[C@H](C)C3CCCCC3)n2)nc1 [Compound 60, (R)-N-(1-cyclohexylethyl)-2-(5-((ethylamino)methyl)pyridin-2-yl)-5,6-dihydroxypyrimidine-4-carboxamide]					10	2.9						
Cc1nnc(C(=O)NC(C)(C)c2nc(C(=O)NCc3ccc(F)cc3)c(O)c(=O)n2C)o1 [Raltegravir™, Raltegravir, reference compound]				2.9			≥ 97	three times higher	High resistance	96 (1.5^b)	High resistance	>200 (1.5^b)
